In ChEMBL document CHEMBL1145701, “Spinonin, a novel glycoside from Ononis spinosa subsp. leiosperma” (1997):
In brackets after ≈: the same amount, converted by molar mass. Activity calls are given as the source filed them. The rule behind the calls is not given here.

Key:
[1] = system: Streptococcus; test: Antimicrobial activity against beta-hemolytic Streptococcus isolate 48 by paper-disk diffusion method; assay type: functional
[2] = system: Pseudomonas aeruginosa; test: Antimicrobial activity against Pseudomonas aeruginosa ATCC 9027 by paper-disk diffusion method; assay type: functional
[3] = system: BC1; test: Cytotoxicity against human BC1 cells; assay type: functional, cell-based
[4] = molecular target: Human immunodeficiency virus type 1 reverse transcriptase (Human immunodeficiency virus 1) (UniProt Q72547); test: Inhibition of HIV1 reverse transcriptase
[5] = system: SK-N-SH; test: Cytotoxicity against human SK-N-SH cells […]; assay type: functional, cell-based
[6] = system: KBVIN; test: Cytotoxicity against human KBVIN cells in presence of vinblastine; assay type: functional, cell-based
[7] = system: Lu1; test: Cytotoxicity against human Lu1 cells; assay type: functional, cell-based

Compound | MIC [1] [µg/mL] | MIC [2] [µg/mL] | Activity [3] | Activity [4] | Activity [5] | Activity [6] | Activity [7]
COc1ccc(-c2coc3cc(O[C@@H]4O[C@H](CO)[C@@H](O)[C@H](O)[C@H]4O)ccc3c2=O)cc1 [ONONIN] | 25 (≈ 58.1 µM) |  |  |  |  |  | 
COc1ccc2c(c1)O[C@H]1c3ccc(O[C@@H]4O[C@H](CO)[C@@H](O)[C@H](O)[C@H]4O)cc3OC[C@@H]21 |  | 200 (≈ 463 µM) |  |  |  |  | 
O=C1C=C(c2ccc(O)cc2O[C@@H]2O[C@H](CO)[C@@H](O)[C@H](O)[C@H]2O)O[C@@H]1Cc1ccc(O)cc1 [SPINONIN] |  | 200 (≈ 434 µM) | inactive | inactive | inactive | inactive | inactive
